Assays:
Type in all cases: cell-based
[1] = Cytotoxicity (CC50) in NHDF cells; details: human, CHIKV
Experimental: (§1) As used herein, “CC50” is intended to refer to the concentration of a substance (e.g., a compound or a drug) that is required for 50% reduction of cell viability. In one aspect, an CC50 can refer to the concentration of a substance that is required for 50% reduction (i.e., cytotoxicity) in vivo, as further defined elsewhere herein.
VTR=Virus titer reduction in log at 10 μM concentration. NT: not tested, ND: not determined.

[2] = Cytotoxicity (CC50) in HEK293 cells; details: human, WNV
Experimental: as §1
The antiviral activity against Alpharviruses evaluated in HEK293 cells (4 hours pre-incubation with compound before infected with virus) is shown in Table 2 below. VTR=Virus titer reduction in log at 10 μM concentration. NT: not tested, ND: not determined

ZIKA = test: Antiviral activity against ZIKA in HEK 293 cells; details: Zika virus; for EC90: HEK293, read-out: ZIKA (HEK 293 cells) EC90; for log reduction at 10 µM: HEK293, read-out: ZIKA (HEK 293 cells) VTR (virus titer reduction)
VEEV = test: microbe, parasite or virus in culture; details: Venezuelan equine encephalitis virus, NHDF; for EC90: read-out: VEEV (NHDF cells) EC90; for log reduction at 10 µM: read-out: VEEV (NHDF cells) VTR (virus titer reduction)
DENV = test: Antiviral activity against DENV in HEK293 cells; details: Dengue virus; for EC90: HEK293, read-out: DENV (HEK293 cells) EC90; for log reduction at 10 µM: HEK293, read-out: DENV (HEK293 cells) VTR (virus titer reduction)
WNV = test: Antiviral activity against WNV in HEK293 cells; details: West Nile virus; for EC90: HEK293, read-out: WNV (HEK293 cells) EC90; for log reduction at 10 µM: HEK293, read-out: WNV (HEK293 cells) VTR (virus titer reduction)
CHIKV = test: Antiviral activity against CHIKV in NHDF cells; details: Chikungunya virus; for EC90: read-out: CHIKV (NHDF cells) EC90; for log reduction at 10 µM: read-out: CHIKV (NHDF cells) VTR (virus titer reduction)
H1N1 strain = test: Antiviral activity against Influenza H1N1 strain in MDCK cells; details: Influenza A virus; for EC90: 4-6 hours pre-incubation with compound; for log reduction at 20 µM: at 20 μM concentration, 4-6 hours pre-incubation, read-out: H1N1 strain (MDCK cells) VTR (virus titer reduction)
Experimental: (§2) The antiviral activity against Influenza viruses (H1N1 and H3N2 strains) evaluated in MDCK cells (4-6 hours pre-incubation with compound) shown in Table 5 below. VTR=Virus titer reduction in log at 20 μM concentration. NT: not tested, ND: not determined.

[3] = Cytotoxicity (CC50) in MDCK cells; details: dog, H1N1
Experimental: as §1, §2

H3N2 strain = test: Antiviral activity against Influenza H3N2 strain in MDCK cells; details: Influenza A virus; for EC90: 4-6 hours pre-incubation with compound; for log reduction at 20 µM: at 20 μM concentration, 4-6 hours pre-incubation, read-out: H3N2 strain (MDCK cells) VTR (virus titer reduction)
Experimental: as §2

| Compound | CC50 [1] [µM] | CC50 [2] [µM] | EC90 (ZIKA) [µM] | log reduction at 10 µM (ZIKA) | EC90 (VEEV) [µM] | log reduction at 10 µM (VEEV) | EC90 (DENV) [µM] | log reduction at 10 µM (DENV) | EC90 (WNV) [µM] | log reduction at 10 µM (WNV) | EC90 (CHIKV) [µM] | log reduction at 10 µM (CHIKV) | EC90 (H1N1 strain) [µM] | log reduction at 20 µM (H1N1 strain) | CC50 [3] [µM] | EC90 (H3N2 strain) [µM] | log reduction at 20 µM (H3N2 strain) |
| --- | --- | --- | --- | --- | --- | --- | --- | --- | --- | --- | --- | --- | --- | --- | --- | --- | --- |
| CCC(CC)COC(=O)[C@H](C)NP(=O)(OC[C@H]1O[C@@H](n2ncc(=O)[nH]c2=O)[C@H](O)[C@@H]1O)Oc1ccccc1 (mixture of isomers) [Compound 3, 2-ethylbutyl ((((2R,3S,4R,5R)-5-(3,5-dioxo-4,5-dihydro-1,2,4-triazin-2(3H)-yl)-3,4-dihydroxytetrahydrofuran-2-yl)methoxy)(phenoxy)phosphoryl)-L-alaninate] | > 40 | > 40 | 3.3 | 2.4 | > 10 | 0 | 2.5 | 3.5 | 2.9 | 3.2 | > 10 | 0 | – | – | – | – | – |
| CCC(CC)COC(=O)[C@H](C)NP(=O)(OC[C@H]1O[C@@H](n2ncc(N)nc2=O)C(O)C1O)Oc1ccccc1 (single isomer, unassigned) [Compound 17, 2-ethylbutyl ((((2r,9,4r,5r)-5-(5-amino-3-oxo-1,2,4-triazin-2(3H)-yl)-3,4-dihydroxytetrahydrofuran-2-yl)methoxy)-(phenoxy)phosphoryl)-L-alaninate] | – | – | – | – | 5 | 1 | > 30 | – | – | – | – | – | – | – | – | – | – |
| N[C@@H](Cc1ccccc1)C(=O)OC[C@H]1O[C@@H](n2ncc(=O)[nH]c2=O)[C@H](O)[C@@H]1O [Compound 11, ((2r,3s,4r,5r)-5-(3,5-dioxo-4,5-dihydro-1,2,4-triazin-2(3H)-yl)-3,4-dihydroxytetrahydrofuran-2-yl)methyl L-phenylalaninate] | > 40 | – | > 30 | – | – | – | > 30 | – | > 30 | – | > 10 | 0.05 | 0.14 | 3.4 | > 20 | 0.78 | 3.4 |
| CC[C@@H](C)[C@@H](N)C(=O)OC[C@H]1O[C@@H](n2ncc(=O)[nH]c2=O)[C@H](O)[C@@H]1O [Compound 12, ((2r,3s,4r,5r)-5-(3,5-dioxo-4,5-dihydro-1,2,4-triazin-2(3H)-yl)-3,4-dihydroxytetrahydrofuran-2-yl)methyl D-isoleucinate] | > 40 | 6.2 | – | – | – | – | 0.5 | 3.9 | – | – | 0.89 | 4.55 | – | – | – | – | – |
| CC[C@H](C)[C@@H](N)C(=O)OC[C@H]1O[C@@H](n2ncc(=O)[nH]c2=O)C(O)C1O (stereo partly drawn) [Compound 13, ((2r,3s,4r,5r)-5-(3,5-dioxo-4,5-dihydro-1,2,4-triazin-2(3)-yl)-3,4-dihydroxytetrahydrofuran-2-yl)methyl D-alloisoleucinate] | > 40 | 6.7 | – | – | – | – | 0.5 | 4 | – | – | 0.51 | 4.3 | – | 3.6 | – | – | 2.8 |
| CC(C)C(=O)OC[C@H]1O[C@@H](n2ncc(=O)[nH]c2=O)[C@H](O)[C@@H]1O [Compound 14, ((2r,3s,4r,5r)-5-(3,5-dioxo-4,5-dihydro-1,2,4-triazin-2(3H)-yl)-3,4-dihydroxytetrahydrofuran-2-yl)-methyl isobutyrate] | – | > 40 | – | – | – | – | 5 | 2.1 | – | – | – | – | 3.6 | 3.3 | > 20 | 16.4 | 3.3 |
| CCOP(=O)(OCC)OC[C@H]1O[C@@H](n2ncc(=O)[nH]c2=O)C(O)C1O (stereo partly drawn) [Compound 16, (2r,3s,4r,5r)-5-(3,5-dioxo-4,5-dihydro-1,2,4-triazin-2(3H)-yl)-3,4-dihydroxytetrahydrofuran-2-yl) methyl diethyl phosphate] | – | > 40 | > 10 | – | 10.1 | 1.05 | > 30 | – | > 10 | – | – | – | > 100 | – | > 100 | – | – |
| CCCCCCCCCCCC(=O)Nc1cnn([C@@H]2O[C@H](CO)[C@@H](O)[C@H]2O)c(=O)n1 [Compound 19, N-(2-((2r,3r,4s,5r)-3,4-dihydroxy-5-(hydroxy-methyl)tetrahydrofuran-2-yl)-3-oxo-2,3-dihydro-1,2,4-triazin-5-yl)dodecanamide] | – | > 40 | 1.1 | 2.6 | – | – | 0.6 | 2.1 | 0.7 | 4 | – | – | 3.16 | 3.3 | > 20 | 12.1 | 3.3 |
| CCCC(=O)Nc1cnn([C@@H]2O[C@H](CO)[C@@H](O)[C@H]2O)c(=O)n1 [Compound 20, N-(2-((2R,3R,4S,5R)-3,4-dihydroxy-5-(hydroxymethyl)tetrahydro-furan-2-yl)-3-oxo-2,3-dihydro-1,2,4-triazin-5-yl)butyramide] | – | 22.9 | 0.2 | 2.8 | – | – | 1.2 | 3 | – | – | 9 | 1.5 | 2.8 | 2.9 | > 20 | 3.5 | 2.7 |
| O=C(Nc1cnn([C@@H]2O[C@H](CO)[C@@H](O)[C@H]2O)c(=O)n1)C1CC1 [Compound 21, N-(2-((2R,3R,4S,5R)-3,4-dihydroxy-5-(hydroxymethyl)tetrahydro-furan-2-yl)-3-oxo-2,3-dihydro-1,2,4-triazin-5-yl)cyclopropane-carboxamide] | – | 18.9 | 0.2 | 4 | – | – | 0.34 | 3.4 | 0.4 | 4.5 | 4.9 | 1.7 | 2.8 | 3.6 | > 20 | 3.9 | 3 |
| O=C(Nc1cnn([C@@H]2O[C@H](CO)[C@@H](O)[C@H]2O)c(=O)n1)C1CCC1 [Compound 22, N-(2-((2R,3R,4S,5R)-3,4-dihydroxy-5-(hydroxymethyl)-tetrahydrofuran-2-yl)-3-oxo-2,3-dihydro-1,2,4-triazin-5-yl)-cyclobutanecarboxamide] | – | 6.46 | 0.4 | 2.6 | – | – | 1 | 3.2 | – | – | 8 | 0.89 | 0.68 | 2.9 | 19 | 3.9 | 3 |
| CCOC(=O)Nc1cnn([C@@H]2O[C@H](CO)[C@@H](O)[C@H]2O)c(=O)n1 [Compound 23, ethyl (2-((2R,3R,4S,5R)-3,4-dihydroxy-5-(hydroxy-methyl)tetrahydrofuran-2-yl)-3-oxo-2,3-dihydro-1,2,4-triazin-5-yl)carbamate] | – | 22.4 | 0.3 | 3 | – | – | 1.3 | 3.3 | – | – | > 10 | 0 | 3.78 | 3.6 | > 20 | 6.3 | 2 |
| CCCCCOC(=O)Nc1cnn([C@@H]2O[C@H](CO)[C@@H](O)[C@H]2O)c(=O)n1 [Compound 24, pentyl (2-((2R,3R,4S,5R)-3,4-dihydroxy-5-(hydroxy-methyl)tetrahydrofuran-2-yl)-3-oxo-2,3-dihydro-1,2,4-triazin-5-yl)carbamate] | – | 20.4 | 0.3 | 3.1 | – | – | 1.2 | 3.3 | – | – | > 10 | 0 | – | 2.9 | – | – | 1.6 |
| CC[C@H](C)[C@H](N)C(=O)OC[C@H]1O[C@@H](n2ncc(N)nc2=O)[C@H](O)[C@@H]1O [Compound 25, ((2r,3s,4r,5r)-5-(5-amino-3-oxo-1,2,4-triazin-2(3H)-yl)-3,4-dihydroxytetrahydrofuran-2-yl)methyl L-isoleucinate] | > 40 | > 40 | – | – | 1.5 | 2.17 | 5.1 | 2 | – | – | 0.85 | 2.58 | – | – | – | – | – |
